Assay results taken from article PMC12920294, “Optimizing uPAR-targeting radiopeptides for improved tissue distribution: progress towards radionuclide therapy” (European Journal of Nuclear Medicine and Molecular Imaging, 2025).
Where two headings read alike, the source gives them in different places.

How the values were obtained:
[1] = assay type: in vitro ADME; settings: 1 µM
Experimental: The ^177Lu-labeled peptides (50 MBq/nmol) were incubated in mouse or human blood plasma (10 MBq/200 µL) over an incubation period of 24 h at 37 °C. Aliquots and control samples of the radiopeptides diluted in saline were analyzed after 1 h, 4 h and 24 h using thin layer chromatography (TLC) as previously reported (Supplementary Material). The distribution coefficients (logD values) of the ^177Lu-labeled peptides (50 MBq/nmol) were determined using a shake-flask method according to a previously published procedure (Supplementary Material).
Methods: A sample of each radiopeptide (50 MBq/nmol) was added to mouse blood plasma (Lot: 32321, Rockland Immunochemicals Inc., USA) or to human blood plasma (Stiftung Blutspende SRK Aargau-Solothurn, Switzerland) to obtain an activity concentration of 10 MBq/200 µL. The test samples were incubated at 37 °C for up to 24 h. Control samples referred to the radiopeptides which were instead diluted in saline at an activity concentration of 10 MBq/200 µL. Aliquots of each sample (2 µL, ~100 kBq) were taken after 1 h, 4 h and 24 h and investigated by means of thin layer chromatography (TLC). The employed method involved reversed-phase TLC plates (MERCK Analytical Chromatography, TLC Silica gel 60 RP-18 F254s) as stationary phase and ACN/citrate buffer (3:7; v/v; pH 5.5) as mobile phase. After the eluent reached the front line, the TLC plates were dried and exposed to a phosphor screen (Super resolution screen PSR10450013, PerkinElmer) for 1 min. The respective screen was developed using a storage phosphor system (Cyclone Plus, PerkinElmer) and analyzed using the OptiQuant Software (version 5.0, Bright Instrument Co Ltd., PerkinElmer).

in vivo = settings: CD1 nude, mouse, 0.5 nmol/mouse, total radioactivity
physchem = assay type: physicochemical; settings: pH 7.4
Experimental: The ^177Lu-labeled peptides (50 MBq/nmol) were incubated in mouse or human blood plasma (10 MBq/200 µL) over an incubation period of 24 h at 37 °C. Aliquots and control samples of the radiopeptides diluted in saline were analyzed after 1 h, 4 h and 24 h using thin layer chromatography (TLC) as previously reported (Supplementary Material). The distribution coefficients (logD values) of the ^177Lu-labeled peptides (50 MBq/nmol) were determined using a shake-flask method according to a previously published procedure (Supplementary Material). Methods: The radiopeptides (50 MBq/nmol) were diluted in phosphate buffered saline (PBS) pH 7.4 to obtain an activity concentration of 10 MBq/500 µL. A sample of this radiopeptide solution (~0.5 MBq, 25 µL, 0.01 nmol) was added to a mixture of PBS pH 7.4 (1475 µL) and n-octanol (1500 µL). The vials were vortexed vigorously for 1 min followed by centrifugation (560 rcf, 25°C, 6 min) for phase separation. Aliquots were taken from each phase and measured in a γ-counter (Wallac Wizard 1480, PerkinElmer). The distribution coefficients were calculated as the logarithmic value of the ratio of counts per minute (cpm) measured in the n-octanol phase relative to the cpm measured in the PBS phase. The results were listed as average ± SD of the data obtained from 3 independent experiments, each performed with five replicates.

## Cc1ccc(CCCC(=O)NCCOCCOCCOCCOCCC(=O)NCCCC[C@H](NC(=O)CN2CCN(CC(=O)O)CCN(CC(=O)O)CCN(CC(=O)O)CC2)C(=O)N[C@@H](CC(=O)O)C(=O)N[C@@H](CC2CCCCC2)C(=O)N[C@@H](Cc2ccccc2)C(=O)N[C@H](CO)C(=O)N[C@H](CCCNC(=N)N)C(=O)N[C@@H](Cc2ccc(O)cc2)C(=O)N[C@@H](CC(C)C)C(=O)N[C@@H](Cc2c[nH]c3ccccc23)C(=O)N[C@@H](CO)C(N)=O)cc1 [[^177Lu]Lu-uPAR-11, metal not drawn]
[1]; 1 h
  Human blood plasma stability, intact radiopeptide: 99 ± 1%
  Mouse blood plasma stability, intact radiopeptide: 99 ± 1%
[1]; 4 h
  Human blood plasma stability, intact radiopeptide: 99 ± 1%
  Mouse blood plasma stability, intact radiopeptide: 99 ± 1%
[1]; 24 h
  Human blood plasma stability, intact radiopeptide: 95 ± 1%
  Mouse blood plasma stability, intact radiopeptide: 95 ± 1%
In vivo; Blood uptake
  tissue uptake at 1 h: 13 ± 2 %ID/g
  tissue uptake at 4 h: 5 ± 0.6 %ID/g
  tissue uptake at 24 h: < 0.03 %ID/g
  tissue uptake at 48 h: < 0.03 %ID/g
In vivo; Bone uptake
  tissue uptake at 1 h: 1.7 ± 0.4 %ID/g
  tissue uptake at 4 h: 0.73 ± 0.06 %ID/g
  tissue uptake at 24 h: 0.19 ± 0.03 %ID/g
  tissue uptake at 48 h: 0.11 ± 0.02 %ID/g
In vivo; Brain uptake
  tissue uptake at 1 h: 0.28 ± 0.03 %ID/g
  tissue uptake at 4 h: 0.12 ± 0.23 %ID/g
  tissue uptake at 24 h: < 0.03 %ID/g
  tissue uptake at 48 h: < 0.03 %ID/g
In vivo; HEK-uPAR xenograft uptake
  tissue uptake at 1 h: 13 ± 2 %ID/g
  tissue uptake at 4 h: 16 ± 2 %ID/g
  tissue uptake at 24 h: 7.9 ± 0.9 %ID/g
  tissue uptake at 48 h: 5.3 ± 0.7 %ID/g
In vivo; Heart uptake
  tissue uptake at 1 h: 4.9 ± 0.3 %ID/g
  tissue uptake at 4 h: 1.8 ± 0.2 %ID/g
  tissue uptake at 24 h: 0.12 ± 0.02 %ID/g
  tissue uptake at 48 h: 0.08 ± 0.01 %ID/g
In vivo; Intestines uptake
  tissue uptake at 1 h: 1.8 ± 0.2 %ID/g
  tissue uptake at 4 h: 0.93 ± 0.11 %ID/g
  tissue uptake at 24 h: 0.19 ± 0.01 %ID/g
  tissue uptake at 48 h: 0.14 ± 0.03 %ID/g
In vivo; Kidneys uptake
  tissue uptake at 1 h: 6.8 ± 0.9 %ID/g
  tissue uptake at 4 h: 4 ± 0.4 %ID/g
  tissue uptake at 24 h: 1.3 to 1.7 %ID/g
  tissue uptake at 48 h: 1.1 ± 0.1 %ID/g
In vivo; Liver uptake
  tissue uptake at 1 h: 4.5 ± 0.3 %ID/g
  tissue uptake at 4 h: 1.8 ± 0.2 %ID/g
  tissue uptake at 24 h: 0.33 ± 0.03 %ID/g
  tissue uptake at 48 h: 0.25 ± 0.02 %ID/g
In vivo; Lung uptake
  tissue uptake at 1 h: 7 ± 1.3 %ID/g
  tissue uptake at 4 h: 3.1 ± 0.2 %ID/g
  tissue uptake at 24 h: 0.29 ± 0.08 %ID/g
  tissue uptake at 48 h: 0.17 ± 0.02 %ID/g
In vivo; Muscle uptake
  tissue uptake at 1 h: 1.4 ± 0.3 %ID/g
  tissue uptake at 4 h: 0.63 ± 0.09 %ID/g
  tissue uptake at 24 h: 0.05 %ID/g
  tissue uptake at 48 h: 0.04 ± 0.01 %ID/g
In vivo; Pancreas uptake
  tissue uptake at 1 h: 1.7 ± 0.2 %ID/g
  tissue uptake at 4 h: 0.69 ± 0.05 %ID/g
  tissue uptake at 24 h: 0.09 ± 0.02 %ID/g
  tissue uptake at 48 h: 0.07 ± 0.02 %ID/g
In vivo; Salivary glands uptake
  tissue uptake at 1 h: 2.9 ± 0.5 %ID/g
  tissue uptake at 4 h: 1.3 ± 0.2 %ID/g
  tissue uptake at 24 h: 0.17 ± 0.02 %ID/g
  tissue uptake at 48 h: 0.18 ± 0.04 %ID/g
In vivo; Spleen uptake
  tissue uptake at 1 h: 2.2 ± 0.3 %ID/g
  tissue uptake at 4 h: 1.1 ± 0.1 %ID/g
  tissue uptake at 24 h: 0.49 ± 0.05 %ID/g
  tissue uptake at 48 h: 0.37 ± 0.05 %ID/g
In vivo; Stomach uptake
  tissue uptake at 1 h: 1.8 ± 0.5 %ID/g
  tissue uptake at 4 h: 0.75 ± 0.19 %ID/g
  tissue uptake at 24 h: 0.12 ± 0.01 %ID/g
  tissue uptake at 48 h: 0.09 %ID/g
physchem
  logD: -0.26 ± 0.09
